Reference: publication PMC9757636, “The effectiveness of newly synthesized quaternary ammonium salts differing in chain length and type of counterion against priority human pathogens” (Scientific Reports, 2022)
Marks after values point to notes of the source that are not given here.

Experiments:
[1] = test system: S. epidermidis ATCC 35984; assay: MIC/MBC microdilution; format: cell-based, Staphylococcus epidermidis; conditions: for Minimal bactericidal concentration (*MBC): 99.9% reduction; for Minimal inhibitory concentration (MIC): 24 h, 37 °C, >90% growth inhibition
Experimental: (§1) The minimum inhibitory concentration (MIC) of the tested monomeric QAS was performed using the microdilution method according to CLSI recommendation (M27-A3). Concentrations from 10 to 1280 µM were analyzed. Strains were incubated with or without compounds (growth control) for 24 h at 37 °C. Three independent replicates were performed. The MIC value was determined spectrophotometrically and the concentration that inhibited more than 90% of growth was determined. Optical density was measured at λ = 590 nm using a 96-well microplate reader (Bio-Rad Universal Hood II).
(§2) To determine the minimum bactericidal concentration (MBC), 10 µL of bacterial suspension incubated with monomeric QAS (MIC concentration and two times higher) was transferred to plates with LB (1% tryptone, 1% yeast extract, 0.5% NaCl) medium. […] The concentration that reduced 99.9% of microbial growth was determined as MBC[54].

S. epidermidis B374 [2] = assay: MIC/MBC microdilution; format: cell-based, Staphylococcus epidermidis; conditions: S. epidermidis B374; for Minimal bactericidal concentration (*MBC) / MBC: 99.9% reduction; for Minimal inhibitory concentration (MIC) / MIC: 24 h, 37 °C, >90% growth inhibition; for MBC: read-out: Minimal bactericidal concentration (*MBC); for MIC: read-out: Minimal inhibitory concentration (MIC)
Experimental: as §1, §2

S. epidermidis SI8 = assay: MIC/MBC microdilution; format: cell-based, Staphylococcus epidermidis; conditions: for Minimal bactericidal concentration (*MBC): 99.9% reduction; for Minimal inhibitory concentration (MIC): 24 h, 37 °C, >90% growth inhibition
Experimental: as §1, §2

S. aureus ATCC 6538 = assay: MIC/MBC microdilution; format: cell-based, Staphylococcus aureus; conditions: S. aureus ATCC 6538; for Minimal bactericidal concentration (*MBC): 99.9% reduction; for Minimal inhibitory concentration (MIC): 24 h, 37 °C, >90% growth inhibition
Experimental: as §1, §2

S. aureus MRSA R98 = assay: MIC/MBC microdilution; format: cell-based, Staphylococcus aureus; conditions: for Minimal bactericidal concentration (*MBC): 99.9% reduction; for Minimal inhibitory concentration (MIC): 24 h, 37 °C, >90% growth inhibition
Experimental: as §1, §2

E. coli ATCC 11229 = assay: MIC/MBC microdilution; format: cell-based, Escherichia coli; conditions: E. coli ATCC 11229; for Minimal bactericidal concentration (*MBC): 99.9% reduction; for Minimal inhibitory concentration (MIC): 24 h, 37 °C, >90% growth inhibition
Experimental: as §1, §2

E. coli H64 = assay: MIC/MBC microdilution; format: cell-based, Escherichia coli; conditions: E. coli H64; for Minimal bactericidal concentration (*MBC): 99.9% reduction; for Minimal inhibitory concentration (MIC) / MIC: 24 h, 37 °C, >90% growth inhibition; for MIC: read-out: Minimal inhibitory concentration (MIC)
Experimental: as §1, §2

P. aeruginosa ATCC 27853 = assay: MIC/MBC microdilution; format: cell-based, Pseudomonas aeruginosa; conditions: P. aeruginosa ATCC 27853; for Minimal bactericidal concentration (*MBC): 99.9% reduction; for Minimal inhibitory concentration (MIC): 24 h, 37 °C, >90% growth inhibition
Experimental: as §1, §2

P. aeruginosa PAO1 [3] = assay: MIC/MBC microdilution; format: cell-based, Pseudomonas aeruginosa; conditions: for Minimal bactericidal concentration (*MBC): 99.9% reduction; for Minimal inhibitory concentration (MIC): 24 h, 37 °C, >90% growth inhibition
Experimental: as §1, §2

[4] = Critical micelle concentration by conductometric measurements; format: physicochemical; conditions: aqueous solution, 25 °C
Experimental: Values of critical micelle concentrations (CMC) of cationic surfactants were measured conductrometrically. N5721 conductometer (Tel-Eko Projekt sp z o.o., Poland), equipped with N5981 probe, was calibrated using 0.1 M, 0.01 M and 0.001 M KCl aqueous solutions (conductivities equal to 1.287 S/m, 0.141 S/m and 0.0147 S/m, respectively) and used without temperature compensation mode (constant temperature 25 °C was kept during all calibration procedures and measurements). Values of specific conductivities of at least 15 different concentrations for each surfactant were measured and plotted versus concentration; the discontinuity point was used to determine critical micelle concentration.

S. epidermidis B374 [5] = assay: Adhesion to polystyrene plate; format: cell-based, Staphylococcus epidermidis
Experimental: Adhesion analysis to polystyrene surfaces was determined according to the method of Rodrigues et al. with modifications. Polystyrene 96-well plates were incubated with the respective compound concentrations (10–1280 µM) for 4 h at 37 °C with 100 rpm shaking. The plates were then washed with miliQ and inoculated with 100 µL of bacterial suspension (OD = 0.4–0.6). Plates were incubated for 6 h at 37 °C with 100 rpm shaking. Wells were rinsed and fixed for 20 min at 60 °C. They were then […] with 0.1% crystal violet solution for 5 min. The wells were washed with miliQ until the unfixed dye was completely eluted. The absorbance at λ = 590 nm was measured using a reader (Bio-Rad Universal Hood II). The positive control was a surface not treated with QAS. Three independent trials were performed.

P. aeruginosa PAO1 [6] = assay: Adhesion to glass; format: cell-based, Pseudomonas aeruginosa; conditions: concentration not given
[7] = test system: Salmonella typhimurium TA100; assay: Mutagenicity (Ames test); format: cell-based; conditions: for Number of colonies: ± SD
Experimental: (§3) Two reference strains of Salmonella Typhimurium TA98 and Salmonella Typhimurium TA100, deficient in histidine synthesis, were used for this study according to the method proposed by Ames et al. with modifications. […] The mixture was mixed and poured onto a Davis minimal medium plate. The mixture without the test compound was used as a negative control. The positive control was a mixture of bacterial culture, biotin-histidine solution, and sodium azide (at a concentration of 15 μg/mL for strain TA100) or acriflavine (at a concentration of 100 μg/mL for strain TA98). Plates were incubated for 48 h at 37 °C, and then colonies were counted. The mutagenicity ratio (MR), the ratio of the number of revertants grown in the presence of the test compound to the number of spontaneously occurring revertants (negative control), was calculated. A mutagenic ratio equal to or greater than 1.7 indicates the mutagenic potential of the tested compounds. The study was performed in three times.

[8] = test system: Salmonella typhimurium TA98; assay: Mutagenicity (Ames test); format: cell-based; conditions: for Number of colonies: ± SD
Experimental: as §3

S. epidermidis B374 [9] = assay: Adhesion to stainless steel; format: cell-based, Staphylococcus epidermidis; conditions: concentration not given, range given over three strains

Structure (SMILES)	Minimal bactericidal concentration (*MBC) [1]	Minimal inhibitory concentration (MIC) [1]	Minimal bactericidal concentration (*MBC) (S. epidermidis SI8)	Minimal inhibitory concentration (MIC) (S. epidermidis SI8)	Minimal bactericidal concentration (*MBC) (S. aureus ATCC 6538)	Minimal inhibitory concentration (MIC) (S. aureus ATCC 6538)	Minimal bactericidal concentration (*MBC) (S. aureus MRSA R98)	Minimal inhibitory concentration (MIC) (S. aureus MRSA R98)	Minimal bactericidal concentration (*MBC) (E. coli ATCC 11229)	Minimal inhibitory concentration (MIC) (E. coli ATCC 11229)	Minimal bactericidal concentration (*MBC) (E. coli H64)	Minimal inhibitory concentration (MIC) (E. coli H64)	Minimal bactericidal concentration (*MBC) (P. aeruginosa ATCC 27853)	Minimal inhibitory concentration (MIC) (P. aeruginosa ATCC 27853)	Minimal bactericidal concentration (*MBC) (P. aeruginosa PAO1 [3])	Minimal inhibitory concentration (MIC) (P. aeruginosa PAO1 [3])	CMC [4] [mol/L]	Mutagenicity index ([7]; ¼ MIC)	Number of colonies ([7]; ¼ MIC)	Mutagenicity index ([7]; ½ MIC)	also measured
CCCCCCCCCCCCCC(=O)N(C)CCC[N+](C)(C)C.[Br-] [BrC14]	160 *160 µM	160 *160 µM	160 *160 µM	160 *160 µM	320 *320 µM	320 *320 µM	320 *320 µM	320 *320 µM	> 1280 * > 1280 µM	> 1280 * > 1280 µM	320 *320 µM	320 *320 µM	1280 *1280 µM	1280 *1280 µM	> 1280 * > 1280 µM	> 1280 * > 1280 µM	0.0025	1.24	158 ± 19.8	1.16	Minimal bactericidal concentration (*MBC) (S. epidermidis B374 [2]): 640 * > 640 µM; Minimal inhibitory concentration (MIC) (S. epidermidis B374 [2]): 640 * > 640 µM; reduced adhesion to polystyrene (S. epidermidis B374 [5]; 1280 µM): 82%; reduction of adhesion to glass (P. aeruginosa PAO1 [6]): approximately 20%; Number of colonies ([7]; ½ MIC): 147.5 ± 21.9; Mutagenicity index ([8]; ¼ MIC): 0.73; Number of colonies ([8]; ¼ MIC): 18.7 ± 6.4; Mutagenicity index ([8]; ½ MIC): 0.84
CCCCCCCCCCCCCCN(C)CCC[N+](C)(C)C.COC(=O)[O-] [MeC14, [(3-tetradecyilomethyloamine)propyl] trimethylammonium methylcarbonate]	40 *40 µM	40 *40 µM	40 *40 µM	40 *40 µM	80 *80 µM	80 *80 µM	80 *80 µM	80 *80 µM	320 *320 µM	320 *320 µM	80 *80 µM	80 *80 µM	1280 * > 1280 µM	1280 * > 1280 µM	> 1280 * > 1280 µM	> 1280 * > 1280 µM	0.0041	1.17	329.5 ± 20.5	1.10	MBC (S. epidermidis B374 [2]): 160 µM; MIC (S. epidermidis B374 [2]): 80 µM; MIC (E. coli H64): 80 µM; Number of colonies ([7]; ½ MIC): 310 ± 17.3; Mutagenicity index ([8]; ¼ MIC): 0.57; Number of colonies ([8]; ¼ MIC): 13 ± 2.8; Mutagenicity index ([8]; ½ MIC): 0.95; Number of colonies ([8]; ½ MIC): 21.7 ± 3.5
CCCCCCCCCCCC(=O)N(C)CCC[N+](C)(C)C.[Br-] [BrC12]	640 *640 µM	640 *640 µM	640 *640 µM	640 *640 µM	1280 *1280 µM	1280 *1280 µM	640 *640 µM	640 *640 µM	1280 *1280 µM	1280 *1280 µM	1280 *1280 µM	1280 *1280 µM	1280 *1280 µM	1280 *1280 µM	> 1280 * > 1280 µM	> 1280 * > 1280 µM	0.0086	1.41	179.3 ± 13.9	1.15	Minimal bactericidal concentration (*MBC) (S. epidermidis B374 [2]): 640 *640 µM; Minimal inhibitory concentration (MIC) (S. epidermidis B374 [2]): 640 *640 µM; reduction of adhesion to glass (P. aeruginosa PAO1 [6]): approximately 20%; mutagenicity index (MR) ([7]; base pair substitution type mutations, MR >= 1.7 indicates mutagenic potential): < 1.7; Number of colonies ([7]; ½ MIC): 146 ± 18.5; mutagenicity index (MR) ([8]; reading frame shift type mutation, MR >= 1.7 indicates mutagenic potential): above 1.7; Mutagenicity index ([8]; ¼ MIC): 0.78; Number of colonies ([8]; ¼ MIC): 20 ± 1.4; Mutagenicity index ([8]; ½ MIC): 1.98; Number of colonies ([8]; ½ MIC): 50.5 ± 6.4
CCCCCCCCCCCCCCCCN(C)CCC[N+](C)(C)C.COC(=O)[O-] [MeC16, [(3-hexadecyilomethyloamine)propyl] trimethylammonium methylcarbonate]	40 *40 µM	40 *40 µM	10 *10 µM	10 *10 µM	10 *10 µM	10 *10 µM	40 *40 µM	40 *40 µM	320 *320 µM	320 *320 µM	80 *80 µM	80 *80 µM	> 1280 * > 1280 µM	> 1280 * > 1280 µM	> 1280 * > 1280 µM	> 1280 * > 1280 µM	0.0012	1.09	305 ± 8.7	1.09	MBC (S. epidermidis B374 [2]): 160 µM; MIC (S. epidermidis B374 [2]): 80 µM; MIC (E. coli H64): 80 µM; inhibition of adhesion to stainless steel (S. epidermidis B374 [9]): 69–83%; reduction in adhesion to polystyrene (S. epidermidis B374 [5]; 320 µM): 77%; reduction of adhesion to glass (P. aeruginosa PAO1 [6]): approximately 20%; Number of colonies ([7]; ½ MIC): 306.7 ± 11.5; Mutagenicity index ([8]; ¼ MIC): 0.39; Number of colonies ([8]; ¼ MIC): 9 ± 2; Mutagenicity index ([8]; ½ MIC): 0.19; Number of colonies ([8]; ½ MIC): 4.3 ± 3.1
